Tests used:
[1] = system: matured hPSC-derived ECs (Passage 5); assay: CHIR treatment in matured endothelium, immunocytochemistry; format: cell-based, human
Protocol: (§1) For extended culture, ECs were selectively dissociated and replated as previously described (Nishihara et al., 2020). Cells were incubated with Accutase until endothelial cells appeared round, typically 2-3 min at 37° C. The plate was tapped to release the ECs while SMLCs remained attached, and the EC-enriched cell suspension transferred to 4× volume of DMEM/F-12 and centrifuged for 5 min, 200×g. Cells were resuspended in hECSR medium and seeded on a new collagen IV-coated plate at approximately 3×10^4 cells/cm^2. hECSR medium was replaced every other day until confluent (typically 6 days). The selective dissociation and seeding described above was repeated, and hECSR medium was again replaced every other day until confluent (typically 6 days). We denote this time point “Passage 3.” In one experiment, these steps were repeated for another two passages. Except where indicated, CHIR 99021 or vehicle (DMSO) was included in the hECSR medium for the entire duration of culture.
Immunocytochemistry was performed in 24-well plates. […]
Images were analyzed using FIJI (ImageJ) software. For epifluorescence images, 5 fields (20×) were analyzed per well, with 3-4 wells per treatment condition. For quantification of cell number, EC colonies were manually outlined, and the Analyze Particles function was used to estimate the number of nuclei within the EC colonies. Nuclei outside the EC colonies were manually counted. EC purity (% EC) was calculated as the number of nuclei within EC colonies relative to total nuclei. To estimate % GLUT-1^+ ECs, cells within the EC colonies with membrane-localized GLUT-1 immunoreactivity (e.g., arrowheads in FIG. 24B) were manually counted. To estimate % Ki67^+ ECs, cells within the EC colonies with at least one nuclear-localized Ki67 punctum were manually counted. For quantification of fluorescence intensity in epifluorescence images, EC colonies were manually outlined, and the Measure function was used to obtain the mean fluorescence intensity for each image channel (fluorophore). A cell-free area of the plate was similarly quantified for background subtraction. […]

[2] = system: hPSC-derived Passage 1 and Passage 3 ECs; assay: Western blotting of DMSO- or CHIR-treated ECs; format: cell-based, human
Protocol: as §1
To enrich samples from Passage 1 cultures for ECs, the Accutase-based selective dissociation method described above was employed. Dissociated cells were centrifuged for 5 min, 200×g, and resulting cell pellets were lysed in RIPA buffer (Rockland Immunochemicals, Pottstown, PA) supplemented with 1× Halt Protease Inhibitor Cocktail (Thermo Scientific). Passage 3 cells were lysed with the above buffer directly on plates. Lysates were centrifuged at 4° C. for 5 min, 14,000×g, and protein concentration in supernatants quantified using the Pierce BCA Protein Assay Kit (Thermo Scientific). Equal amounts of protein were diluted to equal volume with water, mixed with sample buffer, and heated at 95° C. for 5 min, except lysates intended for GLUT-1 Western blotting, which were not heated. Samples were resolved on 4-12% Tris-Glycine gels and transferred to nitrocellulose membranes. Membranes were blocked for 1 h in tris-buffered saline plus 0.1% Tween-20 (TBST) supplemented with 5% non-fat dry milk. Primary antibodies (see Table 6 for antibody information) diluted in TBST plus 5% non-fat dry milk were added to membranes and incubated overnight at 4° C. on a rocking platform. Membranes were washed five times with TBST. Secondary antibodies (see Table 6 for antibody information) diluted in TBST were added to membranes and incubated for 1 h at room temperature on a rocking platform, protected from light. Membranes were washed five times with TBST and imaged using an Odyssey 9120 (LI-COR, Lincoln, NE). Band intensities were quantified using Image Studio software (LI-COR).

Cc1c[nH]c(-c2cnc(NCCNc3ccc(C#N)cn3)nc2-c2ccc(Cl)cc2Cl)n1 [CHIR, CHIR 99021]
increase in GLUT-1 abundance ([1]; CHIR for 6 days after 4 passages, vs DMSO): approximately 1.5 fold | EC number ([1]; CHIR in matured ECs): slight decrease in EC number | claudin-5 expression ([1]; CHIR in matured ECs): variable effects | PLVAP reduction in Western blots ([2]; Passage 1 ECs): not apparent | GLUT-1 and claudin-5 in Western blots ([2]; Passage 1 and Passage 3): upregulation of GLUT-1 and claudin-5 | LSR expression ([2]; Passage 1 and Passage 3 ECs): strong increase in LSR expression | PLVAP in Western blots ([2]; Passage 3 ECs, CHIR vs controls): robust downregulation of PLVAP

Source: patent publication US20230375530A1, “HUMAN BLOOD-BRAIN BARRIER MODEL FOR IMMUNOLOGICAL STUDIES” (WISCONSIN ALUMNI RESEARCH FOUNDATION, priority 2020, published 2023)
